How the values were obtained:
human TLR7 = molecular target: T1, human TLR7 (Homo sapiens, UniProt Q9NYK1); test: Human TLR7 agonist activity reporter assay (HEK-Blue TLR7 cells, SEAP reporter); format: cell-based; details: 18 h treatment, average where assay was performed multiple times, read-out: hTLR7 Agonism EC50
T1 construct: host or cells: HEK-Blue TLR7 cells (engineered human embryonic kidney cells)
T1 sequence (Q9NYK1 27-1049): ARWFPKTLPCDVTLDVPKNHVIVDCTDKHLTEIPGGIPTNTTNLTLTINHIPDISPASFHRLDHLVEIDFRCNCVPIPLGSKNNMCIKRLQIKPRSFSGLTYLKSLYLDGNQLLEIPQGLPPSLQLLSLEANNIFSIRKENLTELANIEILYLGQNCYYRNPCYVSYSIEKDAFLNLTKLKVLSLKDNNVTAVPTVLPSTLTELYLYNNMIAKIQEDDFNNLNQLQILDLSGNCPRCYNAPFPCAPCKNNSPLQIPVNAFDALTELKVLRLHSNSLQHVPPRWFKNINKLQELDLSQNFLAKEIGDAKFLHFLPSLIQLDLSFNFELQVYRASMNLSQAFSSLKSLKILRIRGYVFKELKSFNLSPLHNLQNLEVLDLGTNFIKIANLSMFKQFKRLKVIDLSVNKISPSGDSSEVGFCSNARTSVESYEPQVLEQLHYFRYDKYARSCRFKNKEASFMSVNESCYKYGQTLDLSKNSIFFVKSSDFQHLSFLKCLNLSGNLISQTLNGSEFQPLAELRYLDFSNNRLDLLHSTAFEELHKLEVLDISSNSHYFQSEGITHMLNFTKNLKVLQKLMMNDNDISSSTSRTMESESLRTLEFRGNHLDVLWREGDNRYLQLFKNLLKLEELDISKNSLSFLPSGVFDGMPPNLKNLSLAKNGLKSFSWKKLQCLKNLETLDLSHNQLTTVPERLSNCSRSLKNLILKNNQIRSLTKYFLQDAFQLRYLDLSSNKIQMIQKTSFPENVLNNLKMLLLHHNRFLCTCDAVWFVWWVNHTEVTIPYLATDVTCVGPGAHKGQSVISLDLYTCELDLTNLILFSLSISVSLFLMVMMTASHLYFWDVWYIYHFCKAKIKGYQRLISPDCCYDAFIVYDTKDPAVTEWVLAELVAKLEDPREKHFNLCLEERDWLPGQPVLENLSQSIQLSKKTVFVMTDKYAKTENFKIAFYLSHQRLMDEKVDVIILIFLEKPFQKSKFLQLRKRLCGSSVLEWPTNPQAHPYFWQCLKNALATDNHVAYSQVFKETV
Procedure: This procedure describes a method for assaying human TLR7 (hTLR7) agonist activity of the compounds disclosed in this specification.
HEK-Blue™ TLR7 cells were added to each well of a 384-well tissue-culture plate (15,000 cells per well) and incubated 16-18 h at 37° C., 5% CO2. Compounds (100 nl) were dispensed into wells containing the HEK-Blue™ TLR cells and the treated cells were incubated at 37° C., 5% CO2. After 18 h treatment ten microliters of freshly-prepared Quanti-Blue™ reagent (Invivogen) was added to each well, incubated for 30 min (37° C., 5% CO2) and SEAP levels measured using an Envision plate reader (OD=620 nm). The half maximal effective concentration values (EC50; compound concentration which induced a response halfway between the assay baseline and maximum) were calculated.

CD69 = test: Induction of CD69 in human whole blood; format: cell-based; details: 17 hrs at 37° C., y-axis 100% set to 1 uM of resiquimod, average where assay was performed multiple times, read-out: hWB CD69 EC50
Procedure: The induction of Type I interferon (IFN) MX-1 genes and the B-cell activation marker CD69 are downstream events that occur upon activation of the TLR7 pathway. The following is a human whole blood assay that measures their induction in response to a TLR7 agonist.
Heparinized human whole blood was harvested from human subjects and treated with test TLR7 agonist compounds at 1 mM. The blood was diluted with RPMI 1640 media and Echo was used to predot 10 nL per well giving a final concentration of 1 uM (10 nL in 10 uL of blood). After mixing on a shaker for 30 sec, the plates were covered and placed in a 37° C. chamber for o/n=17 hrs. Fixing/lysis buffer was prepared (5×->1× in H2O, warm at 37° C.; Cat #BD 558049) and kept the perm buffer (on ice) for later use.
For surface markers staining (CD69): prepared surface Abs: 0.045 ul hCD14-FITC (ThermoFisher Cat #MHCD1401)+0.6 ul hCD19-ef450 (ThermoFisher Cat #48-0198-42)+1.5 ul hCD69-PE (cat #BD555531)+0.855 ul FACS buffer. Added 3 ul/well, spin 1000 rpm for 1 min and mixed on shaker for 30 sec, put on ice for 30 mins. Stop stimulation after 30 minutes with 70 uL of prewarmed 1× fix/lysis buffer and use Feliex mate to resuspend (15 times, change tips for each plate) and incubate at 37 C for 10 minutes.
Centrifuge at 2000 rpm for 5 minutes aspirate with HCS plate washer, mix on shaker for 30 sec and then wash with 70 uL in dPBS and pelleted 2×s (2000 rpm for 5 min) and 50 ul wash in FACS buffer pelleted 1×s (2000 rpm for 5 min). Mix on shaker for 30 sec. For Intracellular markers staining (MX-1): Add 50 ul of BD Perm buffer III and mix on shaker for 30 sec. Incubate on ice for 30 minutes (in the dark). Wash with 50 uL of FACS buffer 2× (spin @2300 rpm×5 min after perm) followed by mixing on shaker for 30 sec. Resuspended in 20 ul of FACS buffer containing MX1 antibody ( )(4812)-Alexa 647: Novus Biologicals #NBP2-43704AF647) 20 ul FACS bf+0.8 ul hIgG+0.04 ul MX-1. Spin 1000 rpm for 1 min, mix on shaker for 30 se and the samples were incubated at RT in the dark for 45 minutes followed by washing 2×FACS buffer (spin @2300 rpm×5 min after perm). Resuspend 20 ul (35 uL total per well) of FACS buffer and cover with foil and place in 4° C. to read the following day. Plates were read on iQuePlus. The results were loaded into toolset and […] curves are generated in curve master. The y-axis 100% is set to 1 uM of resiquimod.

| SMILES | EC50 (human TLR7) | EC50 (CD69) |
| --- | --- | --- |
| CCCCNc1nc(N)nc2c(OC)nn(Cc3ccc(CNC4CCOCC4)cc3OC)c12 [Compound 115, N7-butyl-3-methoxy-1-[(2-methoxy-4-{[(oxan-4-yl)amino]methyl}phenyl)-methyl]-1H-pyrazolo[4,3-d]pyrimidine-5,7-diamine] | 40.1 nM | 8.1 nM |
| CCCCNc1nc(N)nc2c(-c3cc[nH]n3)nn(Cc3ccc(CNC4CCOCC4)cc3OC)c12 [Compound 116, N7-butyl-1-[(2-methoxy-4-{[(oxan-4-yl)amino]methyl}-phenyl)methyl]-3-(1H-pyrazol-3-yl)-1H-pyrazolo[4,3-d]pyrimidine-5,7-diamine] | 1430 nM | 709 nM |
| CCCCNc1nc(N)nc2c(CO)nn(Cc3ccc(CNC4CCOCC4)cc3OC)c12 [Compound 118, [5-amino-7-(butylamino)-1-[(2-methoxy-4-{[(oxan-4-yl)amino]methyl}phenyl)-methyl]-1H-pyrazolo[4,3-d]pyrimidin-3-yl]methanol] | 594 nM | 252 nM |
| CCCCNc1nc(N)nc2c(CO)nn(Cc3ccc(CN4CCN(CCO)CC4)cc3OC)c12 [Compound 119, 2-{4-[(4-{[5-amino-7-(butyl-amino)-3-(hydroxymethyl)-1H-pyrazolo[4,3-d]pyrimidin-l-yl]methyl}-3-methoxy-phenyl)methyl]piperazin-1-yl}ethan-1-ol] | 433 nM | 177 nM |
| CCCCNc1nc(N)nc2c(CO)nn(Cc3ccc(CN4CC(OC)C4)cc3OC)c12 [Compound 120, [5-amino-7-(butylamino)-1-({2-methoxy-4-[(3-methoxy-azetidin-1-yl)methyl]phenyl}-methyl)-1H-pyrazolo[4,3-d]pyrimidin-3-yl]methanol] | 334 nM | 199 nM |
| CCCCNc1nc(N)nc2c(C3=CCOC3)nn(Cc3ccc(CNC4CCOCC4)cc3OC)c12 [Compound 121, N7-butyl-3-(2,5-dihydro-furan-3-yl)-1-[(2-methoxy-4-{[(oxan-4-yl)amino]methyl}-phenyl)methyl]-1H-pyrazolo[4,3-d]pyrimidine-5,7-diamine] | 1560 nM | 640 nM |
| CCCCNc1nc(N)nc2c(CC)nn(Cc3ccc(CNC4CCOCC4)cc3OC)c12 [Compound 122, N7-butyl-3-ethyl-1-[(2-methoxy-4-{[(oxan-4-yl)amino]methyl}phenyl)-methyl]-1H-pyrazolo[4,3-d]pyrimidine-5,7-diamine] | 203 nM | 88.7 nM |
| CCCCNc1nc(N)nc2c(C(C)C)nn(Cc3ccc(CNC4CCOCC4)cc3OC)c12 [Compound 123, N7-butyl-1-[(2-methoxy-4-{[(oxan-4-yl)amino]methyl}-phenyl)methyl]-3-(propan-2-yl)-1H-pyrazolo[4,3-d]pyrimidine-5,7-diamine] | 1040 nM | 418 nM |
| CCCCNc1nc(N)nc2c(C3CCOC3)nn(Cc3ccc(CNC4CCOCC4)cc3OC)c12 (stereo not shown) [Compound 124, N7-butyl-1-[(2-methoxy-4-{[(oxan-4-yl)amino]methyl}-phenyl)methyl]-3-(oxolan-3-yl)-1H-pyrazolo[4,3-d]pyrimidine-5,7-diamine] | 798 nM | 339 nM |
| CCC[C@@H](CO)Nc1nc(N)nc2c(C)nn(Cc3ccc(CN4CCN(CCO)CC4)cc3OC)c12 [Compound 125, (2S)-2-({5-amino-1-[(4-{[4-(2-hydroxyethyl)piperazin-1-yl]methyl}-2-methoxy-phenyl)methyl]-3-methyl-1H-pyrazolo[4,3-d]pyrimidin-7-yl}amino)pentan-1-ol] | 236 nM | 237 nM |
| CCC[C@@H](CCO)Nc1nc(N)nc2c(C)nn(Cc3ccc(CO)cc3OC)c12 [Compound 126, (3S)-3-[(5-amino-1-{[4-(hydroxymethyl)-2-methoxyphenyl]methyl}-3-methyl-1H-pyrazolo[4,3-d]pyrimidin-7-yl)amino]hexan-1-ol] | 63.4 nM | 90.2 nM |

Source: patent US20230127326A1, “C3-SUBSTITUTED 1H-PYRAZOLO[4,3-d]PYRIMIDINE COMPOUNDS AS TOLL-LIKE RECEPTOR 7 (TLR7) AGONISTS” (BRISTOL-MYERS SQUIBB COMPANY, priority 2020, published 2023)
